Several values for one entry are separate records, joined by “and”; a condition that tells them apart may be missing. Identical values can stand only once.
What was measured:
Assay type in all cases: in vivo, human
[1] = tested on: patient with pseudovitelliform dystrophy; assay: Clinical treatment of adult pseudo-vitelliform dystrophy: visual acuity; details: for visual acuity after treatment: one patient, one month
Experimental: (§1) The invention will now be illustrated by the following description of clinical examples which, of course, are not limiting in nature. In these examples the active principle, in particular ramipril, was administered continuously in an oral form, in an amount of 1.25 mg per day.
(§2) Ramipril was used in the following three disorders: retinitis pigmentosa; Stargardt's disease, fundus flavimaculatus; adult pseudo-vitelliform dystrophy.
One patient was tested. Acuity improved in one month from 1.6 to 2/10 in the right eye and from 2/10 to 3/10 in the left eye. The activity of the ramipril in these hereditary dystrophies is unique.

[2] = tested on: patients with central serous chorioretinopathy; assay: Clinical treatment of retinal epitheliopathy and central serous chorioretinopathy (CSCR); details: in a few days to a few weeks
Experimental: as §1

[3] = tested on: severely myopic patients with degenerative chorioretinopathy; assay: Clinical treatment of degenerative chorio-retinopathy in severe myopia: corrected visual acuity
Experimental: as §1
By way of example, visual acuity changed respectively: from simple light perception (LP) to 1/20 for the monophtalmic eye; from 2/10 (RE) 1/10 (LE) to 5/10 (RE) and 5/10 (LE); from 1.5/10 to 3/10; from 1/20 (both eyes) to 2/10 (RE) and 1/10 (LE); from 1/10 (RE) and 1/10 (LE) to 6/10 (RE) and 3/10 (LE). Clearly, the term RE used here means “right eye” and the term LE used here means “left eye”.

[4] = tested on: patients with glaucomatous neuropathy; assay: Clinical treatment of glaucomatous neuropathy: visual acuity, automated perimetry, ocular tension; details: for Mean drop MD: normal −2..2; for Corr. Loss variance CLV: normal 0..4; for Loss variance LV: normal 0..6; for visual acuity after treatment: most spectacular case
Experimental: as §1
FIGS. 1 and 2 reproduce the fields of vision of the left eye; FIGS. 3 and 4 reproduce the field of vision of the right eye as perceived by one of the treated patients who suffered from glaucomatous neuropathy, respectively before treatment (FIGS. 1 and 3) and after treatment, 10 days later (FIGS. 2 and 4).
(§3) The grey scale provides an “image” of visual function, point by point, of different regions of the retina; the palest zones correspond to regions in which the visual functions are the least altered; the darkest zones correspond to those that have altered the most. […] A reduction in the darkest regions also indicates local visual recovery in regions that have become lighter.
(§4) The values that appear in the right hand portions of the figures correspond to the threshold values measured locally at set points in the retina. […] In contrast, the values that appear in the lower right hand portions of the figures correspond to local loss of vision in the zones concerned of the retina compared with the normal.
(§5) The Bebie curves also provide comparative images of the visual capacity of the subject under examination (lower curves) compared with the curves for normal or quasi-normal subjects (upper curves).

[5] = tested on: patients with age-related macular degeneration; assay: Clinical treatment of age-related macular degeneration (ARMD): visual acuity
Experimental: as §1
By way of example, visual acuity changed respectively from 0.16 to 0.3; 0.2 to 0.5; from 0.05 to 0.2 (right eye) and 0.05 to 0.15 (left eye); from 0.2 to 0.4 (right eye) and from 0.5 to 0.8 (left eye); from 0.6 to 1; from 0.4 to 0.6 (right eye) and from 0.2 to 0.5 (left eye).

[6] = tested on: patients with retinal venous occlusion; assay: Clinical treatment of retinal venous occlusions; details: for visual acuity after treatment: oedematous and ischemic type venous branch occlusion, two months
Experimental: as §1

[7] = tested on: patients with retinitis pigmentosa; assay: Clinical treatment of retinitis pigmentosa: visual acuity, automated perimetry, electroretinogram; details: for visual acuity after treatment: 1.25 mg orally, two months; for Mean drop MD: normal −2..2; for Corr. Loss variance CLV: normal 0..4; for Loss variance LV: normal 0..6; for Mean sensitivity MS: sectorial retinitis pigmentosa
Experimental: as §1
FIGS. 5 and 6 reproduce the fields of vision of the left eye; FIGS. 7 and 8 reproduce the field of vision of the right eye as perceived by one of the treated patients who suffered from sectorial retinitis pigmentosa, respectively before treatment (FIGS. 5 and 7) and after treatment, two months later (FIGS. 6 and 8).
as §3, §4, §5
Three patients were treated with 1.25 mg of ramipril orally and their visual acuity improved in the space of two months: […]

[8] = tested on: patient with Stargardt's disease, fundus flavimaculatus; assay: Clinical treatment of Stargardt's flavimaculatus disease: visual acuity; details: for visual acuity after treatment: one patient
Experimental: as §1, §2
One patient was treated; acuity improved from 1/20 to 1/10 in the right eye and from 1/50 to 3/10 in the left eye.

## CCOC(=O)[C@H](CCc1ccccc1)N[C@@H](C)C(=O)N1[C@H](C(=O)O)C[C@@H]2CCC[C@@H]21 [ramipril]
[1]; adult pseudo-vitelliform dystrophy, all cases
  visual function: improvement in visual function
[1]; left eye, before 2/10
  visual acuity after treatment: 3/10
[1]; right eye, before 1.6
  visual acuity after treatment: 2/10
[2]
  blister (retinal serous detachment): reduction in the blister
  visual acuity and central field of vision: improvement in visual acuity and in the central field of vision
[3]; case 1, monophtalmic eye, before simple light perception (LP)
  visual acuity after treatment: 1/20
[3]; case 2, LE, before 1/10
  visual acuity after treatment: 5/10
[3]; case 2, RE, before 2/10
  visual acuity after treatment: 5/10
[3]; case 3, before 1.5/10
  visual acuity after treatment: 3/10
[3]; case 4, LE, before 1/20
  visual acuity after treatment: 1/10
[3]; case 4, RE, before 1/20
  visual acuity after treatment: 2/10
[3]; case 5, LE, before 1/10
  visual acuity after treatment: 3/10
[3]; case 5, RE, before 1/10
  visual acuity after treatment: 6/10
[3]; even in a low dose, always, despite extremely severe myopic choroidosis
  corrected visual acuity: improvement in corrected visual acuity
[4]; automated perimetry
  scotomas: absolute scotomas became relative
[4]; automated perimetry, on average
  reduction of loss in mean sensitivity: 30%
[4]; irregular amount
  ocular tension: Significant reduction
[4]; left eye after treatment (10 days), Mean, before 9.9
  Mean drop MD: 6.2 dB
[4]; left eye after treatment (10 days), Mean, before 22.4
  Corr. Loss variance CLV: 13.1 dB^2
[4]; left eye after treatment (10 days), Mean, before treatment 16.5
  Mean sensitivity MS: 20.2
[4]; left eye after treatment (10 days), Phase 1, before 9.5
  Mean drop MD: 5.7 dB
[4]; left eye after treatment (10 days), Phase 1, before 26.8
  Loss variance LV: 16.8 dB
[4]; left eye after treatment (10 days), Phase 1, before treatment 16.9
  Mean sensitivity MS: 20.0
[4]; left eye after treatment (10 days), Phase 2, before 9.4
  Mean drop MD: 6.8 dB
[4]; left eye after treatment (10 days), Phase 2, before 29.3
  Loss variance LV: 26.5 dB
[4]; left eye after treatment (10 days), Phase 2, before treatment 17.3
  Mean sensitivity MS: 20.0
[4]; LE, before 3/10
  visual acuity after treatment: 10/10
[4]; RE, before 6/10
  visual acuity after treatment: 8/10
[4]; right eye after treatment (10 days), Mean, before 9.5
  Mean drop MD: 4.8 dB
[4]; right eye after treatment (10 days), Mean, before 21.8
  Corr. Loss variance CLV: 13.1 dB^2
[4]; right eye after treatment (10 days), Mean, before treatment 16.9
  Mean sensitivity MS: 21.6
[4]; right eye after treatment (10 days), Phase 1, before 9.0
  Mean drop MD: 4.1 dB
[4]; right eye after treatment (10 days), Phase 1, before 28.6
  Loss variance LV: 17.2 dB
[4]; right eye after treatment (10 days), Phase 1, before treatment 17.4
  Mean sensitivity MS: 22.2
[4]; right eye after treatment (10 days), Phase 2, before 9.3
  Mean drop MD: 4.7 dB
[4]; right eye after treatment (10 days), Phase 2, before 21.0
  Loss variance LV: 10.4 dB
[4]; right eye after treatment (10 days), Phase 2, before treatment 17.4
  Mean sensitivity MS: 21.9
[5]; case 1, before 0.16
  visual acuity after treatment: 0.3
[5]; case 2, before 0.2
  visual acuity after treatment: 0.5
[5]; case 3, left eye, before 0.05
  visual acuity after treatment: 0.15
[5]; case 3, right eye, before 0.05
  visual acuity after treatment: 0.2
[5]; case 4, left eye, before 0.5
  visual acuity after treatment: 0.8
[5]; case 4, right eye, before 0.2
  visual acuity after treatment: 0.4
[5]; case 5, before 0.6
  visual acuity after treatment: 1
[5]; case 6, left eye, before 0.2
  visual acuity after treatment: 0.5
[5]; case 6, right eye, before 0.4
  visual acuity after treatment: 0.6
[5]; majority of patients, with or without sub-retinal neovessels
  visual acuity: improved visual acuity
[6]; first patient, before 2/10
  visual acuity after treatment: 8/10
[6]; majority of patients treated
  functional and angiographic outcome: improved both on the functional and on the angiographic level
[6]; second patient, before 6/10
  visual acuity after treatment: 10/10
[7]; first patient, right eye, before doubtful light perception
  visual acuity after treatment: 1/50
[7]; retinitis pigmentosa, all cases
  visual function: improvement in visual function
[7]; second patient, monophthalmic, before 2/10
  visual acuity after treatment: 5/10
[7]; third patient (sectorial), left eye, before 1.6
  visual acuity after treatment: 4/10
[7]; third patient (sectorial), right eye, before 1.6
  visual acuity after treatment: 6/10
[7]; third patient, left eye after two months, Mean, before 10.3
  Mean drop MD: 6.5 dB
[7]; third patient, left eye after two months, Mean, before 52.5
  Corr. Loss variance CLV: 48.0 dB^2
[7]; third patient, left eye after two months, Phase 1, before 9.8
  Mean drop MD: 6.2 dB
[7]; third patient, left eye after two months, Phase 1, before 60.6
  Loss variance LV: 51.8 dB
[7]; third patient, left eye after two months, Phase 2, before 9.6
  Mean drop MD: 7.0 dB
[7]; third patient, left eye after two months, Phase 2, before 52.8
  Loss variance LV: 63.9 dB
[7]; third patient, right eye after two months, Mean, before 10.6
  Mean drop MD: 8.8 dB
[7]; third patient, right eye after two months, Mean, before 66.0
  Corr. Loss variance CLV: 65.6 dB^2
[7]; third patient, right eye after two months, Phase 1, before 10.2
  Mean drop MD: 8.7 dB
[7]; third patient, right eye after two months, Phase 1, before 70.4
  Loss variance LV: 67.5 dB
[7]; third patient, right eye after two months, Phase 2, before 11.5
  Mean drop MD: 9.2 dB
[7]; third patient, right eye after two months, Phase 2, before 86.9
  Loss variance LV: 79.8 dB
[7]; third patient, left eye after two months, Mean, before 16.8
  Mean sensitivity MS: 19.9 and 20.9
[7]; third patient, left eye after two months, Phase 1, before 17.3
  Mean sensitivity MS: 21.2
[7]; third patient, left eye after two months, Phase 2, before 17.9
  Mean sensitivity MS: 20.8
[7]; third patient, right eye after two months, Mean, before 16.5
  Mean sensitivity MS: 18 and 18.3
[7]; third patient, right eye after two months, Phase 1, before 16.8
  Mean sensitivity MS: 18.4
[7]; third patient, right eye after two months, Phase 2, before 16.0
  Mean sensitivity MS: 18.2
[7]; third patient, especially in the red and in the left eye
  electroretinogram: substantially improved
[8]; Stargardt's disease, fundus flavimaculatus, all cases
  visual function: improvement in visual function
[8]; left eye, before 1/50
  visual acuity after treatment: 3/10
[8]; right eye, before 1/20
  visual acuity after treatment: 1/10
